Data taken from patent US20150038739A1, “METHOD FOR MANUFACTURING REFINED METHIONINE” (SUMITOMO CHEMICAL COMPANY, LIMITED, priority 2012, published 2015).

- solubility of methionine in pure water (saturated solubility) (pure water, normal temperature and normal pressure): about 3.0 % by weight
- saturated solubility of methionine in alkaline recovered wash water (under 2.0% by weight of concentration of potassium): about 5.0 % by weight
Compound: CSCC[C@H](N)C(=O)O [methionine]
